The values that follow come from US5981519A, “Vinyl-pyrrolidinone cephalosporins” (Hoffman-La Roche Inc., priority 1996, dated 1999).

For one test, the system named is S. aureus 270A (MRSA). Nature of the test: In vitro activity, minimum inhibitory concentration, agar dilution, S. aureus 270A (MRSA). Conditions: Staphylococcus aureus, Mueller Hinton agar, inoculum=10^4 CFU/spot. Type of test: cell-based. On the procedure: (§1) Representative compounds (A and B, above) of the present invention were tested. In vitro activity was determined by minimum inhibitory concentration by the agar dilution method in Mueller Hinton agar, inoculum=10^4 CFU/spot.
(In agar dilution the substance is mixed into plates at graded concentrations.)

A further test concerns MRSA. Nature of the test: In vitro activity, MIC90 against MRSA (n = 38), agar dilution. Type of test: cell-based. Conditions: Staphylococcus aureus, MuellerHinton agar, inoculum: 10^5 CFU/spot. On the procedure: as §1
*Agar dilution method on MuellerHinton agar, inoculum: 10^5 CFU/spot

In a further test the test system is P. aeruginosa ATCC27853. Nature of the test: In vitro activity, minimum inhibitory concentration, agar dilution, P. aeruginosa ATCC27853. Type of test: cell-based. Conditions: Pseudomonas aeruginosa, Mueller Hinton agar, inoculum=10^4 CFU/spot. On the procedure: as §1
Another test relates to S.aureus 6538 (MSSA). Nature of the test: In vitro activity, minimum inhibitory concentration, agar dilution, S. aureus 6538 (MSSA). Type of test: cell-based. Conditions: Staphylococcus aureus, Mueller Hinton agar, inoculum=10^4 CFU/spot. On the procedure: as §1
The test system of the next test is S. aureus 743 (MRSA). Nature of the test: In vitro activity, minimum inhibitory concentration, agar dilution, S. aureus 743 (MRSA). Type of test: cell-based. The conditions noted are these: Staphylococcus aureus, Mueller Hinton agar, inoculum=10^4 CFU/spot. The protocol:
as §1

The test system of the next test is S. aureus 270 A (MRSA). The test is described as follows: In vivo efficacy, sc abscess model in mice infected with S. aureus 270 A (MRSA). Conditions: 10 mg/kg ip; for Median log CFU: 3 mice, untreated 6.92. On the procedure: In vivo efficacy was determined with a sc abscess model in mice, infected with S. aureus 270 A (MRSA). The dose (ip) was 10 mg/kg. The median log of colony forming units (CFU) was determined.

Values after ≈ are worked out from the molar mass of the structure shown.

With `Nc1nc(/C(=N/O)C(=O)N[C@@H]2C(=O)N3C(C(=O)O)=C(/C=C4\CCN([C@@H]5CCNC5)C4=O)CS[C@H]23)ns1` [A, (6R, 7R)-7-[(Z)-2-(5-Amino-[1,2,4]thiadiazol-3-yl)-2-hydroxyimino-acetylamino]-8-oxo-3-[(E)-(R)-2-oxo-[1,3']bipyrrolidinyl-3-ylidenemethyl]-5-thia-1-aza-bicyclo[4.2.0]oct-2-ene-2-carboxylic acid], the minimum inhibitory concentration (MIC) (usually the smallest concentration in the dilution series that meets the test's criterion for growth inhibition) in the test with S. aureus 270A (MRSA) is 2 µg/mL (≈ 3.74 µM); with P. aeruginosa ATCC27853, 2 µg/mL (≈ 3.74 µM); against S.aureus 6538 (MSSA), 0.5 µg/mL (≈ 0.935 µM); in the test with S. aureus 743 (MRSA) it was 2 µg/mL (≈ 3.74 µM). In addition, in the test with MRSA, the MIC90 (usually an inhibitory concentration at the 90% level, which refers to growth in some studies and to a panel of isolates in others) was 4 µg/mL (≈ 7.48 µM). The “activity compared with vancomycin” value in the test on S. aureus 270 A (MRSA) is “more active than vancomycin”. In addition, the “reduction in the number of CFUs as compared to the untreated control” value with S. aureus 270 A (MRSA) is recorded as “more than hundred-fold reduction”. The “Median log CFU” value in the test with S. aureus 270 A (MRSA) came to 4.72 log CFU.
As for `Nc1nc(/C(=N/O)C(=O)N[C@@H]2C(=O)N3C(C(=O)O)=C(/C=C4\CCN([C@H]5CCNC5)C4=O)CS[C@H]23)ns1` [B, (6R, 7R)-7-[(Z)-2-(5-Amino-[1,2,4]thiadiazol-3-yl)-2-hydroxyimino-acetylamino]-8-oxo-3-[(E)-(S)-2-oxo-[1,3']bipyrrolidinyl-3-ylidenemethyl]-5-thia-1-aza-bicyclo[4.2.0]oct-2-ene-2-carboxylic acid], the MIC in the test on S. aureus 270A (MRSA) stood at 4 µg/mL (≈ 7.48 µM); against P. aeruginosa ATCC27853, 4 µg/mL (≈ 7.48 µM); against S.aureus 6538 (MSSA), 0.25 µg/mL (≈ 0.468 µM); against S. aureus 743 (MRSA), 2 µg/mL (≈ 3.74 µM). In addition, the MIC90 in the test on MRSA worked out at 4 µg/mL (≈ 7.48 µM).
For `CN[C@H](CC(C)C)C(=O)N[C@H]1C(=O)N[C@@H](CC(N)=O)C(=O)N[C@H]2C(=O)N[C@H]3C(=O)N[C@H](C(=O)N[C@H](C(=O)O)c4cc(O)cc(O)c4-c4cc3ccc4O)[C@H](O)c3ccc(c(Cl)c3)Oc3cc2cc(c3O[C@@H]2O[C@H](CO)[C@@H](O)[C@H](O)[C@H]2O[C@H]2C[C@](C)(N)[C@H](O)[C@H](C)O2)Oc2ccc(cc2Cl)[C@H]1O` [Vancomycin, vancomycin, reference compound], the “Median log CFU” value in the test on S. aureus 270 A (MRSA) amounted to 5.28 log CFU.
